# Reference: BindingDB's records for doi:10.7270/Q21V5CG8 (Burnham Center For Chemical Genomics, 2011)
# Biological target: T1, Cysteine protease ATG4B (Homo sapiens, UniProt Q9Y4P1)
# T1 sequence (Q9Y4P1 whole entry): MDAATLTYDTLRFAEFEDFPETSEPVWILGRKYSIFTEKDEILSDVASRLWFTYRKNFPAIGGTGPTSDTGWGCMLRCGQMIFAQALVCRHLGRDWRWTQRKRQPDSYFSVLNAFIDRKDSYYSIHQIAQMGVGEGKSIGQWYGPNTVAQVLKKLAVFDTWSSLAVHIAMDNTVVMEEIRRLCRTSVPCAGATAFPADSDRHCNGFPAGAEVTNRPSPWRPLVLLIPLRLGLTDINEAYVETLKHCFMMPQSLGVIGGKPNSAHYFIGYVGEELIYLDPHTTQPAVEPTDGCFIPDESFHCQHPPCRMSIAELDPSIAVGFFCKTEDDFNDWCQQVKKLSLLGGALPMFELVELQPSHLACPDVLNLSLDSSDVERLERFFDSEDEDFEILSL
# Experiment: ATG4B protease inhibitors, dose response, biochemical, fluorescence, set 2 (AID 588584)
row,SMILES,IC50 [µM]
1,"CC1=CC(/C=N/n2c(COc3ccccc3)nc3ccccc3c2=O)C(=O)C([N+](=O)[O-])=C1 (stereo not drawn) [3-[[(E)-(3-methyl-5-nitro-6-oxocyclohexa-2,4-dien-1-ylidene)methyl]amino]-2-(phenoxymethyl)quinazolin-4-one]",22.8
2,"Cc1ccc(NC2=NC(=O)C(=Cc3c(C)[nH]c4ccccc34)S2)cc1 [5-[(2-methyl-1H-indol-3-yl)methylene]-2-[(4-methylphenyl)imino]-1,3-thiazolidin-4-one]",30.6
3,Oc1ccc2ccccc2c1CN=Nc1nnc(-c2ncc[nH]2)c2ccccc12 [SMR000151639],5.4
